This assay has as its system luciferase-expressing U-87 MG cells. Description: Cancer treating effect in brain tumor model (bioluminescence signals). The format is in vivo, mouse. Here is the method: The NP-cur aqueous dispersion prepared according to Example 1-1 was intravenously injected daily at a dose of 200 μL from day 3 of the transplantation of the cancer cells in the brain tumor model prepared according to Example 3-1. […] For the control groups to which the drug was not administered, a group (control of FIG. 11) to which the F-127 aqueous solution was intravenously injected daily for 3 weeks at a dose of 200 μL, and a group (free curcumin of FIG. 11) to which curcumin which was not loaded in the polymeric nanoparticles but was dissolved in an organic solvent, dimethyl sulfoxide (DMSO, Daejung Chemicals & Metals Co., LTD., Korea), was intraperitoneally injected at a dosage of 360 mg/kg daily for 3 weeks was selected to observe the bioluminescence signals in the same manner as in the NP-cur administration experimental group. Finally, the bioluminescence signals observed in the two control groups and experimental group and the results of comparative analysis thereof are shown in FIG. 11.

The structures appear in SMILES notation.

Take `COc1cc(/C=C/C(=O)CC(=O)/C=C/c2ccc(O)c(OC)c2)ccc1O` [curcumin]: where the note is “NP-cur 0.2 mg/kg/d i.v., curcumin solution 360 mg/kg/d i.p.”, the “effect on tumor growth” value is listed as “only slightly slowed”. Under “NP-cur 200 μL i.v. daily (0.2 mg/kg/d curcumin), free curcumin in DMSO i.p. 360 mg/kg daily for 3 weeks”, the “bioluminescence intensity of brain tumor over time (days 7, 14, 21)” value is “still showed a large signal increase”.
